According to patent US9090631B2, “Process for purifying cefotiam hydrochloride” (HAINAN LINGKANG PHARMACEUTICAL CO., LTD., priority 2011, dated 2015):
Structures can show the parent of a compound that is named as a salt.

Assay: Solubility of cefotiam hydrochloride in recrystallization solvents
Format: physicochemical
Text: The solubility of cefotiam hydrochloride is great in water but very small in ethanol, and even smaller in acetone. A mixture of water and ethanol or a mixture of water and acetone is used as the solvent to recrystallize cefotiam hydrochloride.

SMILES: CN(C)CCn1nnnc1SCC1=C(C(=O)O)N2C(=O)[C@@H](NC(=O)Cc3csc(N)n3)[C@H]2SC1 [cefotiam hydrochloride, (6R,7R)-7-[[(2-amino-4-thiazolyl)acetyl]amino]-3-[[1-[2-(dimethylamino)ethyl]-1H-tetrazol-5-yl]thiomethyl]-8-oxo-5-thia-1-azabicyclo[4,2,0]oct-2-ene-2-carboxylic acid dihydrochloride]
- solubility (in ethanol): very small
- solubility (in water): great
